Assays:
Assay type in all cases: functional, cell-based
HCT-116 = test: Cytotoxicity against human HCT116 cells after 96 hrs by MTT assay; conditions: for IC50: HCT-116, 96 h
HepG2 = test: Cytotoxicity against human HepG2 cells after 96 hrs by MTT assay; conditions: for IC50: HepG2, 96 h
MCF7 = test: Cytotoxicity against human MCF7 cells after 96 hrs by MTT assay; conditions: for IC50: MCF7, 96 h

With `COc1cccc2c1C(=O)c1c(O)c3c(c(O)c1C2=O)C[C@@](O)(C(=O)CO)C[C@@H]3O[C@H]1C[C@H](N)[C@H](O)[C@H](C)O1` [DOXORUBICIN] the IC50 (HCT-116) was 2.56 µM, the IC50 (HepG2) was 2.68 µM and the IC50 (MCF7) was 2.44 µM.

Work on `CC[C@H](CC[C@@H](C)[C@H]1CC[C@H]2[C@@H]3CC(=O)[C@H]4C[C@@H](Cl)CC[C@]4(C)[C@H]3CC[C@]12C)C(C)C` yielded an IC50 (HCT-116) of 3.15 µM, an IC50 (HepG2) of 3.56 µM and an IC50 (MCF7) of 3.01 µM.

With `CC[C@H](CC[C@@H](C)[C@H]1CC[C@H]2[C@@H]3CC(=O)N(CCO)[C@H]4C[C@@H](Cl)CC[C@]4(C)[C@H]3CC[C@]12C)C(C)C` the Activity (HCT-116) was “Dose-dependent effect”, the IC50 (HCT-116) was 2.72 µM and the Activity (HepG2) was “Dose-dependent effect”. The IC50 (HepG2) was 3.02 µM, the Activity (MCF7) was “Dose-dependent effect” and the IC50 (MCF7) was 2.55 µM.

Work on `CC[C@H](CC[C@@H](C)[C@H]1CC[C@H]2[C@@H]3CC(=O)[C@H]4C[C@@H](OC(C)=O)CC[C@]4(C)[C@H]3CC[C@]12C)C(C)C` yielded an IC50 (HCT-116) of 5.02 µM, an IC50 (HepG2) of 4.87 µM and an IC50 (MCF7) of 3.54 µM.

For `CC[C@H](CC[C@@H](C)[C@H]1CC[C@H]2[C@@H]3CC(=O)[C@H]4CCCC[C@]4(C)[C@H]3CC[C@]12C)C(C)C`, the IC50 (HCT-116) was 4.51 µM, the IC50 (HepG2) was 5.22 µM and the IC50 (MCF7) was 3.34 µM.

For `CC[C@H](CC[C@@H](C)[C@H]1CC[C@H]2[C@@H]3CC(=O)N(CCO)[C@H]4CCCC[C@]4(C)[C@H]3CC[C@]12C)C(C)C`, the Activity (HCT-116) was “Dose-dependent effect”, the IC50 (HCT-116) was 3.96 µM and the Activity (HepG2) was “Dose-dependent effect”. For the same compound, the IC50 (HepG2) was 4.68 µM, the Activity (MCF7) was “Dose-dependent effect” and the IC50 (MCF7) was 2.98 µM.

For `CC[C@H](CC[C@@H](C)[C@H]1CC[C@H]2[C@@H]3CC(=O)N(CCO)[C@H]4C[C@@H](OC(C)=O)CC[C@]4(C)[C@H]3CC[C@]12C)C(C)C`, the Activity (HCT-116) was “Dose-dependent effect”, the IC50 (HCT-116) was 4.24 µM and the Activity (HepG2) was “Dose-dependent effect”. For the same compound, the IC50 (HepG2) was 4.52 µM, the Activity (MCF7) was “Dose-dependent effect” and the IC50 (MCF7) was 3.02 µM.
